Results published in US10449128B2, “Fibrous support comprising particles containing a partially water-soluble active agent, particles, and methods for producing said particles” (priority 2014, dated 2019).

Assay: Solubility in water
Assay type: physicochemical
Excerpt: For the solid compounds, the solubility is defined as the percentage by weight of the compound in a solution at equilibrium with the solid phase at the above temperature T and a pressure of one atmosphere. For the liquid compounds (or solids in the pure state), the aqueous mixtures of which separate into two or more phases, the solubility taken into account is the percentage by weight of the specified compound in the water-rich liquid phase at equilibrium at the operating temperature (temperature at which said particles are manufactured (as the case may be, between 20 and 95° C.)) and a pressure of one atmosphere.

CCCCN(CCC(=O)OCC)C(C)=O [IR3535, ethyl 3-[acetyl(butyl)amino]propanoate, reference compound]
solubility in water (at 20° C.): approximately 7 % by weight

OC[C@@H](O)[C@H](O)[C@@H](O)CO [xylitol]
solubility in water (at 25° C.): 30 % by weight | solubility in water (temperature not stated): 39%
